Results as given in patent US9580398B2, “Compounds, compositions, and methods for modulating ferroptosis and treating excitotoxic disorders” (The Trustees of Columbia University in the City of New York, priority 2012, dated 2017).
Read-outs that look alike come from different tables or passages of the source. Where a SMILES comes first, the peptide text is derived from it. [ ]: non-standard residue; d: D form. The star is where a group is joined. Nle = CCCC[C@H](N)C(=O)O; Cbz = O=C(OCc1ccccc1)*; CH2F = FC*

How the values were obtained:
[1] = test system: rat organotypic hippocampal slice culture (OHSC); experiment: Glutamate-induced excitotoxic cell death in organotypic hippocampal slice cultures (PI uptake); format: cell-based; conditions: 5 mM L-glutamate 3 hours; 24 hours after; DG, CA1, CA3; Fer-1 2 μM, CPX 5 μM, MK-801 10 μM
Procedure: OHSCs were cultured as previously described (Morrison et al., 2002) with approval from Columbia University's Institutional Animal Care and Use Committee (IACUC). Briefly, Sprague Dawley rat pups (P8-P10) were rapidly decapitated, and the hippocampus placed in ice-cold Gey's balanced salt solution (Sigma). 400 μm thick sections were cut using a Mcllwain tissue chopper and immediately plated on Millicell cell culture inserts (Millipore, Billerica, Mass.) in Neurobasal (Invitrogen) media supplemented with B27 (1×, Invitrogen), GlutaMAX (1 mM, Invitrogen), and D-glucose (4.5 mg/mL, Sigma) at 37° C. and 5% CO2. After 2 days in vitro (DIV), the media was changed to medium containing serum comprised of 50% DMEM (Sigma), 25% heat-inactivated horse serum (Sigma), 25% Hank's balanced salt solution (Sigma), GlutaMAX (1 mM, Invitrogen), and D-glucose (4.5 mg/mL, Sigma). Medium was changed every 2-3 days.
After 10-14 DIV, OBSCs were exposed to an excitotoxic injury consisting of a 3 hour exposure to 5 mM L-glutamate in SFM (Morrison et al., 2002). Only healthy OHSCs defined as those with less than 5% cell death in all regions of the hippocampus (DG, CA3, CA1) pre-injury were used for experiments. After the 3 hour exposure, the cultures were placed in fresh serum free media (SFM) containing 75% DMEM, 25% Hank's balanced salt solution, GlutaMAX (1 mM), D-glucose (4.5 mg/mL) until cell death was quantified at 24 hours. If drugs were added, they were added at the same time as glutamate.
Quantification of cell death has been described previously (Cater et al., 2007; Morrison et al., 2002). Brightfield images of the hippocampal cultures were taken before injury for identification of regions of interest (ROI) including the dentate gyrus (DG), CA3 and CA1. Propidium iodide (PI, Invitrogen) was used as a fluorescent signal for cell death, and images were taken before the induction of injury and 24 hours following injury. […] Percentage cell death was expressed as the number of pixels in the ROI above a threshold in the PI fluorescent image divided by the total number of pixels in the ROI.

[2] = test system: HT-1080, BJeLR and Calu-1 cells; experiment: Modulatory profiling of small molecule cell death inhibitors against erastin; format: cell-based, human; conditions: erastin 10 μM, 24 hours, 10-point, 4-fold dilution series
Procedure: The day before the experiment, cells were seeded in black, 384-well clear bottom plates (Corning) at a density of 1,000 cells/well using a Beckman Biomek FX Workstation. All compounds (except 3-methyladenine and chloroquine, which were diluted in water) were diluted in DMSO at 250 times the final highest test concentration, and aliquoted across a 384-well plate (Greiner, Monroe, N.C.). A ten-point, 4-fold dilution series of each inhibitor in DMSO was made using a multichannel pipette. Replicates of this mother plate were stored at −20° C. […] Medium was removed from cells and replaced with 36 μL medium containing DMSO (0.1%) or erastin (10 μM final concentration). Using the Biomek FX, 4 μL were then transferred from each inhibitor daughter plate into the DMSO-containing or erastin-containing assay plates. For 3-methyladenine and chloroquine, inhibitors were prepared fresh in media at 10-fold the final concentration in the presence of DMSO or 10 μM erastin. These solutions were manually pipetted onto cells in 384-well format. Assay plates were incubated at 37° C. for 24 hours. Viability was assessed using Alamar Blue.
The modulatory effect (Me) for drug-drug interactions was computed as follows. First, plate-based background correction was performed using Alamar Blue values from empty (cell-free) wells included on each plate. Next, within each experiment, 100% viability is determined as the average Alamar Blue score for cells treated with modulator=DMSO and lethal=DMSO, and all Alamar Blue values were scaled from 0 to 1 with the DMSO×DMSO condition=1. The individual effects of each modulator and lethal (e.g. in the presence of DMSO) at all tested doses were then ascertained. […] Next, BExp was compared to the actual observed viability. […] By default, Me in DMSO-treated cells is equal to 0. […] Me values for each inhibitor-lethal drug combination were hierarchically clustered and plotted as a heatmap using the heatmaps.2 function of the gplots library in R.

[3] = test system: ROS production in HT-1080 cells; experiment: Analysis of reactive oxygen species production by flow cytometry (H2DCFDA, C11-BODIPY, MitoSOX); format: cell-based, human
Procedure: The day before the experiment, 200,000 cells/well were seeded in 6-well dishes (Corning Inc., Corning, N.Y.). […] Data was collected from the FL1 (H2DCFDA, C11-BODIPY) or FL2 channel (MitoSOX). A minimum of 10,000 cells were analyzed per condition.

[4] = 2,2-diphenyl-1-picrylhydrazyl (DPPH) assay, cell-free antioxidant potential; conditions: test compound 0.05 mM, absorbance at 517 nm
Procedure: The stable radical DPPH (Blois, 1958) was dissolved in methanol to a final concentration of 0.05 mM. 1 mL of DPPH solution was added to 2 μL of each test compound dissolved in DMSO. The final concentration of each test compound was 0.05 mM. Samples were inverted several times and allowed to incubate at room temperature for 10 minutes. Samples were then aliquoted to white 96-well solid-bottom dishes (Corning) and absorbance at 517 nm was recorded using a TECAN M200 plate reader. All values were normalized to background (methanol only). The experiment was repeated twice. Results within each trial normalized to DMSO (=1.0), then averaged across trials.

[5] = test system: erastin (10 μM)-treated HT-1080 cells; experiment: Inhibition of death in erastin (10 μM)-treated HT-1080 cells, viability by Alamar Blue; format: cell-based, human; conditions: for EC50: Homo sapiens, HT-1080, inhibition of death in erastin (10 μM)-treated HT-1080 cells, Alamar Blue, from dose response curves; for ability to prevent erastin-induced death: erastin 10 μM, HT-1080 cells
Procedure: (§1) Cell viability was typically assessed in 384-well format by Alamar Blue (Invitrogen) fluorescence (ex/em 530/590) measured on a Victor3 platereader (Perkin Elmer, Waltham, Mass.). In some experiments, Trypan Blue dye exclusion counting was performed using an automated cell counter (ViCell, Beckman-Coulter Inc., Brea, Calif.). Cell viability in test conditions is reported as a percentage relative to the negative control treatment.
Flow cytometry data was analyzed using FloJo (9.3.2, Tree Star, Inc., Ashland, Oreg.). Chemical structures were drawn using ChemDraw Ultra (Cambridgesoft, Cambridge, Mass.). Computational determination of log P (Slog P function) was performed using MOE 2010.10 (Chemical Computing Group, Montreal, […].). Viability data was analyzed using Excel (Microsoft Corp., […].). Summary data and heatmaps were generated using R. Dose-response curves were computed by 4-parameter logistic regression in Prism 5.0c (GraphPad Software). Images were manipulated using Photoshop CS4 and Illustrator CS4 (Adobe, San Jose, Calif.).
The ability of various compounds disclosed herein to inhibit death in erastin (10 μM)-treated HT-1080 cells were tested. Cell viability was assessed by Alamar Blue. EC50 values (nM) were computed from dose response curves.

HT-1080 cells = experiment: Erastin-induced death in HT-1080 cells with co-treated inhibitors (viability, microscopy); format: cell-based, human; conditions: HT-1080 cells; added up to 6 hours after erastin
Procedure: as §1
Phase contrast images were acquired using an AMG EVOS FL (Advanced Microscopy Group) microscope equipped with a 10× phase-contrast objective. Three independent fields were acquired for each experimental condition. Representative samples from one field of view are shown.

SMILES: C[C@]12N[C@H](Cc3ccccc31)c1ccccc12 [MK-801]
- glutamate-induced cell death (PI uptake) [1]: attenuated significantly and to an almost identical extent

SMILES: CN1C(=O)C(Cc2c[nH]c3ccccc23)NC1=S (stereo not shown) [necrostatin-1]
- modulation of erastin-induced death [2]: not consistently modulated

SMILES: CCCC[C@@H](C=O)NC(=O)[C@H](CC(C)C)NC(=O)[C@H](CC(C)C)NC(C)=O [ALLN] (Ac-Leu-Leu-[Nle]-aldehyde)
- modulation of erastin-induced death [2]: not consistently modulated

SMILES: CCN(CC)CCCC(C)Nc1ccnc2cc(Cl)ccc12 (stereo not shown) [chloroquine]
- modulation of erastin-induced death [2]: not consistently modulated

SMILES: CO/C1=C\C(C)=C\[C@@H](C)[C@@H](O)[C@@H](C)C/C(C)=C/C=C/[C@H](OC)[C@@H]([C@@H](C)[C@@H](O)[C@H](C)[C@@]2(O)C[C@@H](O)[C@H](C)[C@@H](C(C)C)O2)OC1=O [bafilomycin A1]
- modulation of erastin-induced death [2]: not consistently modulated

SMILES: C=C(C)[C@H]1Cc2c(ccc3c2O[C@@H]2COc4cc(OC)c(OC)cc4[C@@H]2C3=O)O1 [rotenone]
- MitoSOX-sensitive mitochondrial ROS production ([3]; HT-1080 cells, 6 hours, erastin 10 μM, rotenone 250 nM): enhanced MitoSOX-sensitive ROS production

SMILES: CCOC(=O)c1ccc(NC2CCCCC2)c([N+](=O)[O-])c1 [SRS8-24, ethyl 4-(cyclohexylamino)-3-nitrobenzoate]
- intrinsic antioxidant capability (DPPH) [4]: destroyed the antioxidant capability
- EC50 [5]: > 10000 nM
- ability to prevent erastin-induced death [5]: destroyed the antioxidant capability of Fer-1, as well as its ability to prevent erastin (10 μM)-induced death

SMILES: Cc1cc(C2CCCCC2)n(O)c(=O)c1 [CPX, ciclopirox olamine]
- glutamate-induced cell death (PI uptake) [1]: attenuated significantly and to an almost identical extent

SMILES: Cn1cnc(N)c2ncnc1-2 [3-methyladenine]
- modulation of erastin-induced death [2]: not consistently modulated

SMILES: CCOC(=O)[C@H]1O[C@@H]1C(=O)N[C@@H](CC(C)C)C(=O)NCCC(C)C [E64d]
- modulation of erastin-induced death [2]: not consistently modulated

SMILES: COC(=O)C[C@H](NC(=O)[C@H](C)NC(=O)[C@@H](NC(=O)OCc1ccccc1)C(C)C)C(=O)CF [z-VAD-fmk] (Cbz-Val-Ala-Asp(OMe)-CH2F)
- modulation of erastin-induced death [2]: not consistently modulated

SMILES: N#CC(=C(/N)Sc1ccccc1N)/C(C#N)=C(\N)Sc1ccccc1N [U0126]
- protection from death on late addition (HT-1080 cells): substantial protection from death
- modulation of erastin-induced death [2]: rescued from erastin-induced death
- effect on erastin-induced ROS accumulation [3]: prevented the accumulation of H2DCFDA-sensitive ROS

SMILES: CCOC(=O)c1ccc(NC2CC2)c(N)c1 [SRS8-72, ethyl 3-amino-4-(cyclopropylamino)benzoate]
- intrinsic antioxidant capability (DPPH) [4]: retained equivalent intrinsic antioxidant capability
- EC50 [5]: 880 nM
- ability to prevent erastin-induced death [5]: an order of magnitude less potent than Fer-1

SMILES: Cc1c(C)c2c(c(C)c1O)CCC(C)(C(=O)O)O2 (stereo not shown) [trolox]
- protection from death on late addition (HT-1080 cells): substantial protection from death
- modulation of erastin-induced death [2]: rescued from erastin-induced death
- effect on erastin-induced ROS accumulation ([3]; erastin 10 μM, HT-1080 cells, H2DCFDA, C11-BODIPY): prevented the accumulation of H2DCFDA-sensitive ROS
